Reference: the supplement of paper PMC7023306
± gives the uncertainty stated by the source.

Assay: TIMS collision cross section in N2 (TIMS CCS N2); higher = larger gas-phase ion size
Conditions: drift gas: N2 (99.4% N2, 0.6% O2), calibration: Stow et al. 2017 values for Agilent ESI-L Low Concentration Tune Mix, ionization: negative ESI
Protocol: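 Authentic plant natural product standards (10-50 ppm in 80% methanol) were analysed by UHPLC (BEH C18, 60 °C) coupled to a Bruker timsTOF Pro in negative ESI with N2 drift gas. TIMS collision cross sections were computed from mobility peak apices after calibration with Agilent Tune Mix using Stow et al. reference values. Values are the average of triplicate runs on different days, reported per annotated ion species (deprotonated ion, adducts, dimer, oxidized ion).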

TIMS collision cross section in N2 (ion species: [2M-H]-)	TIMS collision cross section in N2 (ion species: [M-H]-)	SMILES	further results
238.72 ± 0.12 Å²	157.47 ± 0.15 Å²	O=c1cc(-c2ccc(O)cc2)oc2cc(O)cc(O)c12 [Apigenin]	–
261.04 ± 0.32 Å²	166.11 ± 0.071 Å²	COc1ccc(-c2coc3cc(O)cc(O)c3c2=O)cc1 [Biochanin A (5,7-Dihydroxy-4'-methoxyisoflavone)]	–
230.51 ± 0.25 Å²	156.14 ± 0.1 Å²	O=c1cc(-c2ccccc2)oc2cc(O)cc(O)c12 [Chrysin]	–
–	190.83 ± 0.34 Å²	COc1cc(O)c2c(=O)cc(-c3cc(OC)c(OC)c(OC)c3)oc2c1 [Corymbosin]	–
–	171.28 ± 0.2 Å²	COc1ccc(-c2cc(=O)c3c(O)cc(O)cc3o2)cc1O [Diosmetin]	–
–	233.82 ± 0.23 Å²	COc1ccc(-c2cc(=O)c3c(O)cc(O[C@@H]4O[C@H](CO[C@@H]5O[C@@H](C)[C@H](O)[C@@H](O)[C@H]5O)[C@@H](O)[C@H](O)[C@H]4O)cc3o2)cc1O [Diosmin]	TIMS collision cross section in N2 (ion species: [M-H+Na+HCO2H]-): 247.05 ± 0.28 Å²
–	185.44 ± 0.18 Å²	COc1ccc(-c2cc(=O)c3c(O)c(OC)c(O)cc3o2)cc1OC [Eupatilin]	TIMS collision cross section in N2 (ion species: [M-H+Na+HCO2H]-): 201.78 ± 0.15 Å²

The remaining lines, values behind:

SMILES	TIMS collision cross section in N2 (ion species: [2M-H]-)	TIMS collision cross section in N2 (ion species: [M-H]-)	further results
COc1cc2oc(-c3ccc(O)cc3O)c(CC=C(C)C)c(=O)c2c(O)c1/C=C/C(C)C [Artocarpin]	–	218.58 ± 0.23 Å²	TIMS collision cross section in N2 (ion species: [M-H+Na+HCO2H]-): 229.53 ± 0.64 Å²
C[C@H]1[C@H](C)CC[C@]2(C(=O)O)CC[C@]3(C)C(=CC[C@@H]4[C@@]5(C)C[C@@H](O)[C@H](O)[C@@](C)(CO)[C@@H]5CC[C@]43C)[C@H]12 [Asiatic acid]	–	222.65 ± 0.35 Å²	–
O=C(CCc1ccc(O)c(O)c1)c1c(O)cc(O)c([C@@H]2O[C@H](CO)[C@@H](O)[C@H](O)[C@H]2O)c1O [Aspalathin]	274.03 ± 0.72 Å²	194.21 ± 0.22 Å²	TIMS collision cross section in N2 (ion species: [M-3H]-): 195.17 ± 0.1 Å²
O=c1cc(-c2ccccc2)oc2cc(O)c(O)c(O)c12 [Baicalein]	–	–	TIMS collision cross section in N2 (ion species: [M-3H]-): 158.42 ± 0.15 Å²
CC1(C)CC[C@]2(C)CC[C@]3(C)C(=CC[C@@H]4[C@@]5(C)CC[C@@H](O)[C@](C)(C(=O)O)[C@@H]5CC[C@]43C)[C@@H]2C1 [Boswellic acid, alpha-]	–	222.31 ± 0.39 Å²	TIMS collision cross section in N2 (ion species: [M-H+Na+HCO2H]-): 239.79 ± 0.21 Å²
Oc1cc(O)c2c(c1)O[C@@H](c1ccc(O)c(O)c1)[C@H](O)C2 [Catechin]	–	156.67 ± 0.19 Å²	–
CC1(C)CC[C@]2(C(=O)O)CC[C@]3(C)C(=CC[C@@H]4[C@@]5(C)CC[C@H](O[C@@H]6OC[C@H](O)[C@H](O)[C@H]6O[C@@H]6O[C@H](CO)[C@@H](O)[C@H](O)[C@H]6O)[C@@](C)(CO)[C@@H]5CC[C@]43C)[C@@H]2C1 [Cauloside C]	–	–	TIMS collision cross section in N2 (ion species: [M-H+HCO2H]-): 289.87 ± 0.76 Å²
O=C(/C=C/c1ccc(O)c(O)c1)O[C@@H]1C[C@](O)(C(=O)O)C[C@@H](O)[C@H]1O [Chlorogenic acid]	–	–	TIMS collision cross section in N2 (ion species: [M-3H]-): 187.02 ± 0.44 Å²
CC(C)=CCC1=C(O)C(O)(CC=C(C)C)C(=O)C(C(=O)C(C)C)=C1O (configuration not stated) [Cohumulone]	–	184.13 ± 0.17 Å²	–
C[C@H]1[C@H](C)CC[C@]2(C(=O)O)CC[C@]3(C)C(=CC[C@@H]4[C@@]5(C)C[C@@H](O)[C@H](O)C(C)(C)[C@@H]5CC[C@]43C)[C@H]12 [Corosolic acid]	–	220.34 ± 0.4 Å²	TIMS collision cross section in N2 (ion species: [M-H+Na+HCO2H]-): 231.55 ± 0.4 Å²
O=c1oc2cc(O)ccc2c2oc3cc(O)ccc3c12 [Coumestrol]	245.05 ± 0.43 Å²	155.75 ± 0.042 Å²	–
O=c1c(-c2ccc(O)cc2)coc2cc(O)ccc12 [Daidzein]	246.33 ± 0.2 Å²	157.59 ± 0.0071 Å²	–
Oc1ccc2c(c1)O[C@H]1c3ccc(O)cc3OC[C@@H]21 [Demethyl medicarpin]	–	161.89 ± 0.17 Å²	–
CC(C)=CCc1c(O)cc(O)c(C(=O)/C=C/c2ccc(O)cc2)c1O [Desmethylxanthohumol]	–	183.45 ± 0.15 Å²	–
O=C1c2c(O)cc(O)cc2O[C@H](c2ccc(O)cc2)[C@H]1O [Dihydrokaempferol]	248.74 ± 0.038 Å²	164.03 ± 0.16 Å²	TIMS collision cross section in N2 (ion species: [M-H+Na+HCO2H]-): 186.44 ± 0.2 Å²
O=C1C[C@@H](c2ccc(O)c(O)c2)Oc2cc(O)cc(O)c21 [Eriodictyol]	–	165.97 ± 0.11 Å²	–
